Data: PMC8033486 (Frontiers in Pharmacology, 2021)
Structures can show the parent of a compound that is named as a salt. Where two headings read alike, the source gives them in different places. *1 amine or outer side, *2 acyl side, *3 side chain or, on linkers, in order; H or OH if unused. Where a SMILES comes first, the peptide text is derived from it. Bridges are numbered along the chain shown (N, C = ends). [ ]: non-standard residue; d: D form. The star is where a group is joined. X1 = CC[C@H](C)[C@@H](N[*:1])[C@@H](O)CC(=O)O[C@H](C(=O)[C@H](C)C(=O)[*:2])C(C)C; NMeY = CN[C@@H](Cc1ccc(O)cc1)C(=O)O; dNMeL = CN[C@H](CC(C)C)C(=O)O; Pyruvoyl = CC(=O)C(=O)*

What was measured:
[1] = system: SARS-CoV-2; assay: microbe, parasite or virus in culture; assay type: cell-based
[2] = in vitro; conditions: African green monkey
[3] = CC50, Vero E6, no virus, 3 days
[4] = Severe acute respiratory syndrome coronavirus 2, Vero C1008, Vero E6, one representative experiment with two replicates, when combined, each drug at the same concentration, read-out: IC50 value of the particular graph

With `CC1SCC(C(=O)NC(Cc2cnc[nH]2)C(=O)N2CCCC2C(N)=O)NC1=O.O=C(O)C(F)(F)F` (stereo not drawn) [Montirelin trifluoroacetate salt] the “IC50 (Mean +/- SD)” value [1] was “Not Active”.
For `CCOC(=O)C1=C(CN2CCOCC2)NC(c2nccs2)=NC1c1ccc(F)cc1Br` (stereo not drawn) [Morphothiadine], the “IC50 (Mean +/- SD)” value [1] was “Not Active”.
For `CC(=O)N[C@@H](CS)C(=O)O` [N-Acetil cystein], the “IC50 (Mean +/- SD)” value [1] was “Not Active”.
`Cc1c(O)cccc1C(=O)N[C@@H](CSc1ccccc1)[C@H](O)CN1C[C@H]2CCCC[C@H]2C[C@H]1C(=O)NC(C)(C)C` [Nelfinavir mesylate hydrate] gave a CC50 at 3 days [2, 3] of over 25 µM, an IC50 ([1]; Severe acute respiratory syndrome coronavirus 2, Vero C1008, 72 h, Vero E6, cytopathic effect 3 days after infection, repeated experiments, read-out: IC50 (Mean +/- SD)) of under 10 µM and an IC50 [1, 4] of 1.4 µM.
In the case of `O=C(Nc1ccc([N+](=O)[O-])cc1Cl)c1cc(Cl)ccc1O` [Niclosamide], the CC50 at 3 days [2, 3] is reported as over 9 µM and the “Inhibition of SARS-CoV-2-induced cytopathic effect, result in words” value (from here on “Inhibition”) ([1]; Vero E6) is reported as “failed to protected Vero E6 cells from SARS-CoV-2 induced cytopathic effect”.
Molecule `CC(=O)c1c(C)c2cnc(Nc3ccc(N4CCNCC4)cn3)nc2n(C2CCCC2)c1=O` [Palbociclib] has a CC50 at 3 days [2, 3] of 2.7 µM.
Molecule `CCOC(=O)Cn1cccc1-c1nc(-c2ccc(OC)cc2)c(-c2ccc(OC)cc2)s1` [Pamicogrel] has a CC50 at 3 days ([2]; CC50) of 6.4 µM.
For `N#Cc1ccccc1-c1cc(-c2ccccn2)cn(-c2ccccc2)c1=O` [Perampanel], the “IC50 (Mean +/- SD)” value [1] was “Not Active”.
Work on `CC[C@H](C)[C@H]1NC(=O)[C@@H](NC(=O)[C@@H](CC(C)C)N(C)C(=O)[C@@H]2CCCN2C(=O)C(C)=O)[C@@H](C)OC(=O)[C@H](Cc2ccc(OC)cc2)N(C)C(=O)[C@@H]2CCCN2C(=O)[C@H](CC(C)C)NC(=O)[C@@H](C)C(=O)[C@H](C(C)C)OC(=O)C[C@@H]1O` [Plitidepsin] (Pyruvoyl-P[dNMeL]T[X1]LP[NMeY](Me); ester 3-C) yielded a CC50 [2] of over 0.1 µM, an IC50 ([1]; Severe acute respiratory syndrome coronavirus 2, Vero C1008, 72 h, read-out: IC50 (Mean +/- SD)) of 0.06 µM and an IC50 [1, 4] of 0.05 µM. The “Inhibition” value ([1]; Vero E6) was “always in nM concentrations”.
`CCN(CC)CCCC(C)Nc1c2ccc(Cl)cc2nc2ccc(OC)cc12` (stereo not drawn) [Quinacrine dihydrochloride] showed a CC50 at 3 days [2, 3] of over 6 µM.
For `CCC(CC)COC(=O)[C@H](C)N[P@](=O)(OC[C@H]1O[C@@](C#N)(c2ccc3c(N)ncnn23)[C@H](O)[C@@H]1O)Oc1ccccc1` [Remdesivir], the CC50 [2] was over 85 µM, the IC50 [1, 4] was 1.2 µM and the IC50 ([1]; Vero E6, cytopathic effect 3 days after infection, repeated experiments, read-out: IC50 (Mean +/- SD)) was under 10 µM.
In the case of `CN(C)C(=O)c1cc2cnc(Nc3ccc(N4CCNCC4)cn3)nc2n1C1CCCC1` [Ribociclib], the CC50 at 3 days [2, 3] is reported as over 20 µM and the “IC50 (Mean +/- SD)” value [1] is reported as “Not Active”.
With `CC(C)(C)NC(=O)[C@@H]1C[C@@H]2CCCC[C@@H]2CN1C[C@@H](O)[C@H](Cc1ccccc1)NC(=O)[C@H](CC(N)=O)NC(=O)c1ccc2ccccc2n1` [Saquinavir] the CC50 at 3 days [2, 3] was over 28 µM.
Molecule `COc1cc(C2Oc3cc([C@H]4Oc5cc(O)cc(O)c5C(=O)[C@@H]4O)ccc3OC2CO)ccc1O` (stereo partly drawn) [Silibinin] has a CC50 at 3 days [2, 3] of over 20 µM.
For `CC(C)OC(=O)[C@H](C)N[P@](=O)(OC[C@H]1O[C@@H](n2ccc(=O)[nH]c2=O)[C@](C)(F)[C@@H]1O)Oc1ccccc1` [Sofosbuvir], the CC50 [2] was over 100 µM and the “IC50 (Mean +/- SD)” value [1] was “Not Active”.
With `CC(C)OC(=O)[C@H](C)N[P@](=O)(CO[C@H](C)Cn1cnc2c(N)ncnc21)Oc1ccccc1` [Tenofovir Alafenamide] the CC50 [2] was over 100 µM, the “IC50 (Mean +/- SD)” value [1] was “Not Active” and the “Inhibition” value [1] was “failed to show any antiviral effect”.
With `CC(C)OC(=O)OCOP(=O)(CO[C@H](C)Cn1cnc2c(N)ncnc21)OCOC(=O)OC(C)C` [Tenofovir disoproxil fumarate] the CC50 [2] was over 100 µM and the “Inhibition” value ([1]; Vero E6) was “failed to show any antiviral effect”.
With `COc1c(O[C@@H]2O[C@H](CO)[C@@H](O)[C@H](O)[C@H]2O)cc2c(c1OC)-c1ccc(SC)c(=O)cc1[C@@H](NC(C)=O)CC2` [Thiocolchicoside] the “IC50 (Mean +/- SD)” value [1] was “Not Active”.
In the case of `CCC[C@@]1(CCc2ccccc2)CC(O)=C([C@H](CC)c2cccc(NS(=O)(=O)c3ccc(C(F)(F)F)cn3)c2)C(=O)O1` [Tipranavir], the CC50 at 3 days [2, 3] is reported as over 70 µM and the “Inhibition” value ([1]; Vero E6) is reported as “inhibited SARS-CoV-2-induced cytopathic effect at the non-toxic concentration of 20 μM”.
`COC[C@H]1C[C@@H](c2ncc(-c3ccc4c(c3)COc3cc5c(ccc6nc([C@@H]7CC[C@H](C)N7C(=O)[C@@H](NC(=O)OC)C(C)C)[nH]c65)cc3-4)[nH]2)N(C(=O)[C@H](NC(=O)OC)c2ccccc2)C1` [Velpatasvir] gave a CC50 at 3 days ([2]; CC50) of over 10 µM.
For Ivermectin, the “IC50 (Mean +/- SD)” value [1] was “Not Active”.
With Laflunimus Sodium Salt the “IC50 (Mean +/- SD)” value [1] was “Not Active”.
In the case of Methyl-ß-cyclodextrin, the “IC50 (Mean +/- SD)” value [1] is reported as “active at 1000” and the “Inhibition” value ([1]; Vero E6) is reported as “abrogate SARS-CoV-2 induced cytopathic effect”.
For “interferon-γ [IFN stimulated antivirus proteins; granulomatous disease]”, the “Inhibition” value ([1]; Vero E6) was “displayed antiviral activity”.
